IC50 data for 54 compounds are collected here from patent publication US6784201B2, “Benzothiepines having activity as inhibitors of ileal bile acid transport and taurocholate uptake” (G.D. Searle & Company, priority 1994, dated 2004).

This assay deals with T1, human IBAT (Homo sapiens, UniProt Q12908).
T1 construct: expressed in transfected cells; host or cells: Baby hamster kidney (BHK) cells, clone H14
T1 sequence (Q12908 1-348): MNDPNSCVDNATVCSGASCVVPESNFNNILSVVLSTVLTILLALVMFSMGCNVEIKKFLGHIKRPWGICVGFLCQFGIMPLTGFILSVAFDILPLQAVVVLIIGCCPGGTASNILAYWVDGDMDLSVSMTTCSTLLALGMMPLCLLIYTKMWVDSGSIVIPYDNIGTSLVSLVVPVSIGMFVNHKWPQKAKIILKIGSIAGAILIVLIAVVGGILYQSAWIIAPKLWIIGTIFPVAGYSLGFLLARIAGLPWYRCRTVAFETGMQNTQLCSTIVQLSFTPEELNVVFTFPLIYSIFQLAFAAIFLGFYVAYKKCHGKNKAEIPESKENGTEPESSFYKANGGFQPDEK
As to the kind of experiment: In vitro assay of IBAT-mediated uptake of [14C]-taurocholate (TC) in H14 cells. The assay is classed as cell-based. The conditions noted are these: read-out: Human TC IC50. In short, it runs like this:
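BHK cells stably expressing human IBAT (H14) were incubated 2 h at 37° C with compound and 3 μM final [14C]-taurocholate in DMEM (4.5 g/L glucose) plus 0.2% fatty acid-free BSA. After cold PBS washes, cell-associated radioactivity was measured by scintillation counting.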

With `CCCCC1(CCCC)CS(=O)(=O)c2ccc(N(C)C)cc2C(c2cccc(OCCOCCOCC[N+]3(C)CCN(P(C)(=O)c4ccccc4)CC3)c2)C1O` (stereo not drawn) [Example 1050], the IC50 (as a rule, the concentration that gives 50% inhibition) worked out at 3 nM.

On to `CCCCC1(CCCC)CS(=O)(=O)c2ccc(N(C)C)cc2C(c2ccc(OCc3cc[n+](C)cc3)c(F)c2)C1O` (stereo not drawn) [Example 1051], for which the IC50 came out at 3 nM.

`CCCCC1(CCCC)CS(=O)(=O)c2ccc(N(C)C)cc2C(c2cccc(OCCOCCOCC[n+]3cc4ccccc4cc3C)c2)C1O` (stereo not drawn) [Example 1052]: the IC50 amounted to 3 nM.

As for `CCCCC1(CCCC)CS(=O)(=O)c2ccc(N(C)C)cc2C(c2ccc(OCCC[n+]3ccc(N(C)C)cc3)c(F)c2)C1O` (stereo not drawn) [Example 1053], the IC50 is 3 nM.

For the compound `CCCCC1(CCCC)CS(=O)(=O)c2ccc(N(C)C)cc2C(c2cccc(OCCOCCOCC[n+]3ccc4ccccc4c3)c2)C1O` (stereo not drawn) [Example 1054], the IC50 was found to be 3 nM.

For `CCCCC1(CCCC)CS(=O)(=O)c2ccc(N(C)C)cc2C(c2ccc(OCCOCCOCC[N+]3(C)CCCN(C)CCN(C)CCCN(C)CC3)cc2)C1O` (stereo not drawn) [Example 1055], the IC50 stood at 3 nM.

For the compound `CCCCC1(CCCC)CS(=O)(=O)c2ccc(N(C)C)cc2C(c2cccc(OCCOCCOCC[n+]3ccc4c(c3)CCCCC4)c2)C1O` (stereo not drawn) [Example 1056], the IC50 was determined as 3 nM.

Turning to `CCCCC1(CCCC)CS(=O)(=O)c2ccc(N(C)C)cc2C(c2cccc(OCCOCCOCC[n+]3ccncc3)c2)C1O` (stereo not drawn) [Example 1057], the IC50 worked out at 3 nM.

As for `CCCCC1(CCCC)CS(=O)(=O)c2ccc(N(C)C)cc2C(c2cccc(OCCOCCOCC[N+](CC)(CC)CCN(C)C(=O)c3ccccc3)c2)C1O` (stereo not drawn) [Example 1058], the IC50 worked out at 3 nM.

For the compound `CCCCC1(CCCC)CS(=O)(=O)c2ccc(N(C)C)cc2C(c2ccc(OCCOCC[N+]3(CC)CCCCC3)c(F)c2)C1O` (stereo not drawn) [Example 1059], the IC50 stood at 3 nM.

As for `CCCCC1(CC)CS(=O)(=O)c2ccc(NC)cc2C(c2ccc(OC)c(F)c2)C1O` (stereo not drawn) [Example 1060], the IC50 is 3.6 nM.

Consider `CCCCC1(CCCC)CS(=O)(=O)c2ccc(NC)cc2C(c2cccc(OCCOCCOCC[n+]3cc4ccccc4cn3)c2)C1O` (stereo not drawn) [Example 1061], for which the IC50 worked out at 4 nM.

For `CCCCC1(CCCC)CS(=O)(=O)c2ccc(NC)cc2C(c2cccc(OCCOCCOCC[N+](C)(C)CCN(C)S(=O)(=O)c3ccccc3)c2)C1O` (stereo not drawn) [Example 1062], the IC50 worked out at 4 nM.

In the case of `C=COCC[N+](CC)(CC)CCOCCOCCOc1cccc(C2c3cc(NC)ccc3S(=O)(=O)CC(CCCC)(CCCC)C2O)c1` (stereo not drawn) [Example 1063], the IC50 worked out at 4 nM.

With `CCCCC1(CCCC)CS(=O)(=O)c2ccc(NC)cc2C(c2cccc(OCCOCCOCC[n+]3ccccc3CCN3CCCCC3)c2)C1O` (stereo not drawn) [Example 1064], the IC50 was determined as 4 nM.

With `CCCCC1(CCCC)CS(=O)(=O)c2ccc(N(C)C)cc2C(c2cccc(OCCOCCOCC[N+](CCOCCOC)(CCOCCOC)CCOCCOC)c2)C1O` (stereo not drawn) [Example 1065], the IC50 was 4 nM.

Consider `CCCCC1(CCCC)CS(=O)(=O)c2ccc(N(C)C)cc2C(c2cccc(OCCOCCOCC[n+]3cc4ccccc4c4ccccc43)c2)C1O` (stereo not drawn) [Example 1066], for which the IC50 came out at 4 nM.

`CCCCC1(CCCC)CS(=O)(=O)c2ccc(N(C)C)cc2C(c2cccc(OCCOCCOCC[n+]3ccccc3)c2)C1O` (stereo not drawn) [Example 1068]: the IC50 stood at 4 nM.

As to `CCCCC1(CCCC)CS(=O)(=O)c2c(cc(N(C)C)cc2N(C)C)C(c2ccccc2)C1O` (stereo not drawn) [Example 1069], the half-maximal inhibitory concentration (IC50) was 4 nM.

On to `CCCCC1(CCCC)CS(=O)(=O)c2ccc(N(C)C)cc2C(c2ccc(OCCOCC[n+]3ccn(CC)c3)c(F)c2)C1O` (stereo not drawn) [Example 1070], for which the IC50 amounted to 4 nM.

For the compound `CCCCC1(CCCC)CS(=O)(=O)c2ccc(N(C)C)cc2C(c2cccc(OCCOCCOCC[N+](CC)(CC)CCN(C)P(C)(=O)c3ccccc3)c2)C1O` (stereo not drawn) [Example 1071], the IC50 was determined as 4 nM.

As to `CCCCC1(CCCC)CS(=O)(=O)c2ccc(N(C)C)cc2C(c2cccc(OCCOCCOCC[n+]3ccc(CO)cc3)c2)C1O` (stereo not drawn) [Example 1072], the IC50 is 4 nM.

Regarding `CCCCC1(CCCC)CS(=O)(=O)c2ccc(N(C)C)cc2C(c2ccc(OCCOCC[N+]34CCN(CC3)CC4)c(F)c2)C1O` (stereo not drawn) [Example 1073], the 50% inhibitory concentration (IC50) is 4 nM.

Turning to `CCCCC1(CC)CS(=O)(=O)c2ccc(N(C)C)cc2C(c2ccc(OC)c(F)c2)C1O` (stereo not drawn) [Example 1074], the IC50 came to 4 nM.

Take `CCCCC1(CCCC)CS(=O)(=O)c2c(cc(N(C)C)cc2N(C)C)C(c2ccc(F)cc2)C1O` (stereo not drawn) [Example 1075]: the IC50 is 4.3 nM.

As for `CCCCC1(CCCC)CS(=O)(=O)c2ccc(N(C)C)cc2C(c2ccc(OCCOCCOCC[N+](C)(C)C)cc2)C1O` (stereo not drawn) [Example 1076], the IC50 was found to be 4.5 nM.

Take `CCCCC1(CCCC)CS(=O)(=O)c2ccc(N(C)C)cc2C(c2cccc(CO)c2)C1O` (stereo not drawn) [Example 1077]: the IC50 worked out at 4.5 nM.

Take `CCCCC1(CC)CS(=O)(=O)c2ccc(N(C)C)cc2C(c2cccc(OCCOCCOCC[N+](C)(C)CCCCCC[N+](C)(C)CCOCCOCCOc3cccc(C4c5cc(N(C)C)ccc5S(=O)(=O)CC(CC)(CCCC)C4O)c3)c2)C1O` (stereo not drawn) [Example 1079]: the IC50 is 5 nM.

In the case of `CCCCC1(CCCC)CS(=O)(=O)c2ccc(N(C)C)cc2C(c2cccc(OCCOCCOCC[N+](CC)(CC)CCN(C)S(=O)(=O)c3ccccc3)c2)C1O` (stereo not drawn) [Example 1080], the IC50 stood at 5 nM.

For the compound `CCCCC1(CCCC)CS(=O)(=O)c2ccc(N(C)C)cc2C(c2cccc(OCCOCCOCC[N+](CC)(CC)CC(C)=O)c2)C1O` (stereo not drawn) [Example 1081], the IC50 turned out to be 5 nM.

Regarding `CCCCC1(CCCC)CS(=O)(=O)c2ccc(N(C)C)cc2C(c2ccccn2)C1O` (stereo not drawn) [Example 1082], the IC50 is 5 nM.

Turning to `CCCCC1(CCCC)CS(=O)(=O)c2ccc(N(C)C)cc2C(c2cccc(OCCOCCOCC[n+]3ccccc3C)c2)C1O` (stereo not drawn) [Example 1083], the IC50 came out at 5 nM.

Take `CCCCC1(CCCC)CS(=O)(=O)c2ccc(N(C)C)cc2C(c2cccc(OCCOCCOCC[n+]3ccc(CC)cc3)c2)C1O` (stereo not drawn) [Example 1084]: the IC50 is 5 nM.

On to `CCCCC1(CCCC)CS(=O)(=O)c2ccc(N(C)C)cc2C(c2ccsc2)C1O` (stereo not drawn) [Example 1085], for which the IC50 is 5 nM.

In the case of `CCCCC1(CCCC)CS(=O)(=O)c2ccc(N(C)C)cc2C(c2cccc(OCCOCCOCC[N+](C)(C)CCN(CC)C(=O)c3ccccc3)c2)C1O` (stereo not drawn) [Example 1086], the IC50 was found to be 5 nM.

As to `CCCCC1(CCCC)CS(=O)(=O)c2ccc(N(C)C)cc2C(c2cccc(OCC[N+](CC)(CC)CC)c2)C1O` (stereo not drawn) [Example 1087], the IC50 worked out at 5 nM.

For the compound `CCCCC1(CC)CS(=O)(=O)c2ccc(N(C)C)cc2C(c2ccc3c(c2)OCO3)C1O` (stereo not drawn) [Example 1088], the IC50 came to 5.5 nM.

For the compound `CCCCC1(CC)CS(=O)(=O)c2ccc(N(C)C)cc2C(c2ccc(OC)cc2)C1O` (stereo not drawn) [Example 1089], the IC50 turned out to be 5.7 nM.

With `CCCCC1(CCCC)CS(=O)(=O)c2ccc(N(C)C)cc2C(c2cccc(OCCOCCOCC[n+]3cccc4ccccc43)c2)C1O` (stereo not drawn) [Example 1090], the IC50 came out at 6 nM.

On to `CCCCC1(CCCC)CS(=O)(=O)c2ccc(N(C)C)cc2C(c2cccc(OCCOCCOCC[N+](C)(C3CCCCC3)C3CCCCC3)c2)C1O` (stereo not drawn) [Example 1091], for which the IC50 was determined as 6 nM.

Take `CCCCC1(CCCC)CS(=O)(=O)c2ccc(N(C)C)cc2C(c2cccc(OCCOCCOCC[N+](C)(C)c3ccccc3)c2)C1O` (stereo not drawn) [Example 1092]: the IC50 was determined as 6 nM.

On to `CCCCC1(CCCC)CS(=O)(=O)c2ccc(N(C)C)cc2C(c2cccc(OCCOCCOCC[N+](C)(C)CC(=O)OCC)c2)C1O` (stereo not drawn) [Example 1093], for which the IC50 worked out at 6 nM.

Turning to `CCCCC1(CCCC)CS(=O)(=O)c2ccc(N(C)C)cc2C(c2cccc(OCCOCCOCC[n+]3cccc(C(=O)OC)c3)c2)C1O` (stereo not drawn) [Example 1094], the IC50 was determined as 6 nM.

Turning to `CCCCC1(CCCC)CS(=O)(=O)c2ccc(N(C)C)cc2C(c2cccc(OCCOCCOCC[N+]34CCN(CC3)CC4)c2)C1O` (stereo not drawn) [Example 1095], the IC50 worked out at 6 nM.

Consider `CCCCC1(CCCC)CS(=O)(=O)c2ccc(N(C)C)cc2C(c2cccc(OCCOCCOCC[n+]3ccc(C)cc3)c2)C1O` (stereo not drawn) [Example 1096], for which the IC50 came to 6 nM.

As for `CCCCC1(CCCC)CS(=O)(=O)c2ccc(N(C)C)cc2C(c2cccc(NC(=O)CCBr)c2)C1O` (stereo not drawn) [Example 1097], the IC50 amounted to 6 nM.

`CCCCC1(CC)CS(=O)(=O)c2ccc(N(C)C)cc2C(c2ccc(OC)cc2)C1O` (stereo not drawn) [Example 1099]: the IC50 is 6.3 nM.

Regarding `CCCCC1(CCCC)CS(=O)(=O)c2ccc(N(C)C)cc2C(c2ccc(OC)cc2)C1O` (stereo not drawn) [Example 1100], the IC50 came out at 6.8 nM.

On to `CCCCC1(CCCC)CS(=O)(=O)c2ccc(N(C)C)cc2C(c2ccc(OCCOCC[n+]3ccc(N(C)C)cc3)c(F)c2)C1O` (stereo not drawn) [Example 1101], for which the IC50 is 7 nM.

Consider `CCCCC1(CCCC)CS(=O)(=O)c2ccc(N(C)C)cc2C(c2ccc(OCCOCCOCC[N+](C)(C)CC[N+](C)(C)C)cc2)C1O` (stereo not drawn) [Example 1103], for which the IC50 was found to be 7 nM.

Take `CCCCC1(CCCC)CS(=O)(=O)c2ccc(N(C)C)cc2C(c2cccc(OCCOCCOCC[N+]3=C4CCCCCN4CCC3)c2)C1O` (stereo not drawn) [Example 1104]: the IC50 turned out to be 7 nM.

Take `CCCCC1(CCCC)CS(=O)(=O)c2ccc(N(C)C)cc2C(c2cccc(O)c2)C1O` (stereo not drawn) [Example 1106]: the IC50 was 7.3 nM.

Take `CCCCC1(CCCC)CS(=O)(=O)c2ccc(N(C)C)cc2C(c2cccc(C[n+]3ccccc3)c2)C1O` (stereo not drawn) [Example 1107]: the IC50 was found to be 7.5 nM.

On to `CCCCC1(CCCC)CS(=O)(=O)c2ccc(N(C)C)cc2C(c2cccnc2)C1O` (stereo not drawn) [Example 1108], for which the IC50 came to 7.5 nM.
